What was measured:
ACX3 = target: T1, ACX3 (Arabidopsis thaliana, UniProt P0CZ23); assay: MALDI-TOF/TOF MS of substrate and product; assay type: biochemical; settings: no CAT2; 50 mM KPO4 pH 7.6, 50 µM FAD, 100 µg/ml BSA, 25 °C, 30 min; product Δ2-OPC4-CoA
T1 construct: pET28a (plasmid as in Yuan et al. 2017), purified from E. coli
T1 sequence (P0CZ23 35-675): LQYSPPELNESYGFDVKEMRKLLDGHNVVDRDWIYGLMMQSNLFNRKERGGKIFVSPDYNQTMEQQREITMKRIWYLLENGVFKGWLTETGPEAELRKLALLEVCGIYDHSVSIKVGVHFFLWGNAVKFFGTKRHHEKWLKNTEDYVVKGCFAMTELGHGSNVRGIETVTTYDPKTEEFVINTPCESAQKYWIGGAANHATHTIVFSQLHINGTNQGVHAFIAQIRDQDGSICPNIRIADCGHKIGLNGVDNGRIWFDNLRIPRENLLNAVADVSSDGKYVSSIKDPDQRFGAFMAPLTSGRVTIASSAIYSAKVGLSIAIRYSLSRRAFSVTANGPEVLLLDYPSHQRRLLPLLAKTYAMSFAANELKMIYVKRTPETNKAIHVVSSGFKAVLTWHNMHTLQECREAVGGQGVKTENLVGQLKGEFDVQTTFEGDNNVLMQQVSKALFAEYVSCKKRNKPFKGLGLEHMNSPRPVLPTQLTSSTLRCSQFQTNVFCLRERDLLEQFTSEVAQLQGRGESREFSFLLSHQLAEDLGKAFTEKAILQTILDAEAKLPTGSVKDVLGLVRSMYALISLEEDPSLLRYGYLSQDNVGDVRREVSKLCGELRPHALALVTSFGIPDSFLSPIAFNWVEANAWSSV

ACX2 = target: T2, ACX2 (Arabidopsis thaliana, UniProt O65201); assay: MALDI-TOF/TOF MS of substrate and product; assay type: biochemical; settings: no CAT2; 50 mM KPO4 pH 7.6, 50 µM FAD, 100 µg/ml BSA, 25 °C, 30 min; product Δ2-OPC4-CoA
T2 construct: pET28a (plasmid as in Yuan et al. 2017), purified from E. coli
T2 sequence (O65201 50-692): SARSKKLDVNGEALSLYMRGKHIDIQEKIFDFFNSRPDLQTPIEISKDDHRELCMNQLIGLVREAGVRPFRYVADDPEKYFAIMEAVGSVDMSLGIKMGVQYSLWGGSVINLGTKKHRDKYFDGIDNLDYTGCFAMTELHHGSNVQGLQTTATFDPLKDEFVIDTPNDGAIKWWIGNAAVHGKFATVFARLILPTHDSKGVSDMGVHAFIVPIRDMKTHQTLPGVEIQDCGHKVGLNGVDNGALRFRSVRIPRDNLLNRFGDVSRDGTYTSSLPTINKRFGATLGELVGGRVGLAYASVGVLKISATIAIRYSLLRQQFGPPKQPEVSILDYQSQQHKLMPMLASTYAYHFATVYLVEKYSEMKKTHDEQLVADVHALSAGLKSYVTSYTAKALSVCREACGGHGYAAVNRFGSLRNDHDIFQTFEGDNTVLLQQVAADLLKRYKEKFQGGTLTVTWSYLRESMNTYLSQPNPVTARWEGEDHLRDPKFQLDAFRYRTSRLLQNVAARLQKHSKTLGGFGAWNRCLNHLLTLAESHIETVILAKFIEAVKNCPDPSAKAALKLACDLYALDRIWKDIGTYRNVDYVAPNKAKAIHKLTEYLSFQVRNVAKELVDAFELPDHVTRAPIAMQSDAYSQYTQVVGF

SMILES: CC/C=C\C[C@@H]1C(=O)CC[C@@H]1CCCC(=O)SCCNC(=O)CCNC(=O)[C@H](O)C(C)(C)COP(=O)(O)OP(=O)(O)OC[C@H]1O[C@@H](n2cnc3c(N)ncnc32)[C@H](O)[C@@H]1OP(=O)(O)O [OPC4‐CoA]
- MALDI-TOF/TOF MS of substrate and product (ACX3): The enzymatic activities of ACX2 and ACX3 were assessed with OPC4‐CoA as the substrate
- MALDI-TOF/TOF MS of substrate and product (ACX2): The enzymatic activities of ACX2 and ACX3 were assessed with OPC4‐CoA as the substrate

Reference: publication PMC8435237, “Overexpressing the N‐terminus of CATALASE2 enhances plant jasmonic acid biosynthesis and resistance to necrotrophic pathogen Botrytis cinerea B05.10” (Molecular Plant Pathology, 2021)
